Test system: SVZ cells
Assay: TUNEL apoptosis assay in SVZ cell cultures
Format: cell-based, mouse
Conditions: for TUNEL-positive nuclei: 48 hours
Description: Six- to 8-day-old neurospheres were adhered for 48 hours onto poly-D-lysine-coated glass coverslips in SFM devoid of growth factors. Then, to evaluate proliferation/cell death and neuronal differentiation, the neurospheres were allowed to develop for 48 hours or 7 days at 37° C. in the absence or in the presence of hemopressin (100 nM or 1 μM, Proteimax, Cotia, Brazil) and the CB1R antagonist AM 251 (1 μM, Tocris, Ellisville, Mo., USA).
Cell apoptosis was evaluated by the terminal deoxynucleotidyl transferase dUTP nick-end labeling (TUNEL) assay which is a method that detects DNA fragmentation.
SVZ cells treated with Hp for 48 h, in serum free medium devoid of growth factor (differentiation conditions), were rinsed 3×10 min with 0.15 M PBS and permeabilized in 0.25% Triton X-100 for 30 min at RT. Cells were then incubated with terminal deoxynucleotidyl transferase buffer (0.25 U/μl terminal transferase), 6 μM biotinylated dUTP, pH 7.5)) (all from Roche, Basel, Switzerland) for 1 h at 37° C. in a humidified chamber, and then rinsed in TB buffer (300 mM NaCl and 30 mM sodium citrate) for 15 min and in PBS for 5 min. Incubation with Fluorescein was performed for 1 h and nuclei counterstaining and mounting were performed as described previously.
Fluorescence images were recorded using an LSM 510 Meta confocal microscope or an Axioskop 2 Plus fluorescence microscope (both from Carl Zeiss). In all experiments, measurements were performed in the border of SVZ neurospheres where migrating cells form a cell monolayer. […] Percentages of TUNEL or BrdU immunoreactive cells in SVZ cell cultures were calculated from cell counts in five independent microscopic fields in each coverslip with a x40 objective (approximately 200 cells per field). […] For SCCl experiments, the percentage of oligodendrocytic-like responding cells (with a Thromb/Hist ratio above 1.3) was calculated on the basis of one microscopic field per coverslip, containing approximately 100 cells (magnification, ×40).
The effect of Hp on cell death was evaluated after 48 hours of treatment with Hp.

Compound: CC(C)C[C@H](NC(=O)[C@H](Cc1ccccc1)NC(=O)[C@H](CCCCN)NC(=O)[C@H](Cc1ccccc1)NC(=O)[C@H](CC(N)=O)NC(=O)[C@@H](NC(=O)[C@@H]1CCCN1)C(C)C)C(=O)N[C@@H](CO)C(=O)N[C@@H](Cc1cnc[nH]1)C(=O)O [Hp, PVNFKFLSH]
- toxicity to the cells (TUNEL) (48 hours of treatment): not toxic to the cells
- TUNEL-positive nuclei (Hp 100 nM): 10.26±1.69
- TUNEL-positive nuclei (Hp 1 μM): 13.25±1.56%

From patent publication US20140296153A1, “Oligodendrocyte Differentiation” (priority 2011, published 2014)
